According to ChEMBL document CHEMBL4311971, “Design and synthesis of (2-(phenylamino)thieno[3,2-d]pyrimidin-4-yl)(3,4,5-trimethoxyphenyl)methanone analogues as potent anti-tubulin polymerization agents” (Eur J Med Chem, 2019):

Experiments:
Tubulin (Sus scrofa) = Tubulin (Sus scrofa) (UniProt P02554+P02550); assay: Inhibition of colchicine binding to pig brain tubulin assessed as decrease in fluorescence of colchicine-tubulin complex incubated for 1.5 hrs by fluorescence based assay
HeLa [1] = assay: Induction of microtubule fragmentation in human HeLa cells incubated for 3 hrs by confocal microscopic method; format: functional, cell-based
HeLa [2] = assay: Induction of cell cycle arrest in human HeLa cells assessed as accumulation at G0/G1 phase at 100 nM incubated for 24 hrs by PI staining based flow cytometric analysis (reference value: 68.86%); format: functional
HeLa [3] = assay: Induction of cell cycle arrest in human HeLa cells assessed as accumulation at G2/M phase at 100 nM incubated for 24 hrs by PI staining based flow cytometric analysis (reference value: 9.20%); format: functional
HeLa [4] = assay: Induction of cell cycle arrest in human HeLa cells assessed as accumulation at S phase at 200 nM incubated for 24 hrs by PI staining based flow cytometric analysis (reference value: 21.94%); format: functional
HeLa [5] = assay: Induction of cell cycle arrest in human HeLa cells assessed as accumulation at G0/G1 phase at 250 nM incubated for 24 hrs by PI staining based flow cytometric analysis (reference value: 68.86%); format: functional
HeLa [6] = assay: Induction of cell cycle arrest in human HeLa cells assessed as accumulation at S phase at 250 nM incubated for 24 hrs by PI staining based flow cytometric analysis (reference value: 21.94%); format: functional
HeLa [7] = assay: Induction of cell cycle arrest in human HeLa cells assessed as accumulation at G2/M phase at 250 nM incubated for 24 hrs by PI staining based flow cytometric analysis (reference value: 9.20%); format: functional
HeLa [8] = assay: Induction of cell cycle arrest in human HeLa cells assessed as accumulation at S phase at 500 nM incubated for 24 hrs by PI staining based flow cytometric analysis (reference value: 21.94%); format: functional
HeLa [9] = assay: Induction of apoptosis in human HeLa cells assessed as necrotic cells at 200 nM incubated for 48 hrs by annexin V-FITC/propidium iodide staining based flow cytometric analysis (reference value: 0.234%); format: functional
HeLa [10] = assay: Induction of apoptosis in human HeLa cells assessed as necrotic cells at 250 nM incubated for 48 hrs by annexin V-FITC/propidium iodide staining based flow cytometric analysis (reference value: 0.234%); format: functional
HeLa [11] = assay: Induction of apoptosis in human HeLa cells assessed as necrotic cells at 500 nM incubated for 48 hrs by annexin V-FITC/propidium iodide staining based flow cytometric analysis (reference value: 0.234%); format: functional

Sequence of Tubulin (Sus scrofa) (P02550 whole entry, looked up, the tested form may be a part): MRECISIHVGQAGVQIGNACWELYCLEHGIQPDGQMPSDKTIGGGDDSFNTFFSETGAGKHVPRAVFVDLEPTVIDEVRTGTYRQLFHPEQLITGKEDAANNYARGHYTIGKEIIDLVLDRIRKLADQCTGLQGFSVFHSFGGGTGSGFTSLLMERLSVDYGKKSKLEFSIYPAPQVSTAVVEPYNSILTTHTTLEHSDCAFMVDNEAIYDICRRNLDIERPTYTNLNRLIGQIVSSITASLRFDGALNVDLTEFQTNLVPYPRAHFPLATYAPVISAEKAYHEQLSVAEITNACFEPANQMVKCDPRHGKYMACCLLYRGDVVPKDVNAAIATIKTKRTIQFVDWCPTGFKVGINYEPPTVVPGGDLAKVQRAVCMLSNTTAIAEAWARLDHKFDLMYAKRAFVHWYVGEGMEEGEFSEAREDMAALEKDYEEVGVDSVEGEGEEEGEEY
Sequence of Tubulin (Sus scrofa) (P02554 whole entry, looked up, the tested form may be a part): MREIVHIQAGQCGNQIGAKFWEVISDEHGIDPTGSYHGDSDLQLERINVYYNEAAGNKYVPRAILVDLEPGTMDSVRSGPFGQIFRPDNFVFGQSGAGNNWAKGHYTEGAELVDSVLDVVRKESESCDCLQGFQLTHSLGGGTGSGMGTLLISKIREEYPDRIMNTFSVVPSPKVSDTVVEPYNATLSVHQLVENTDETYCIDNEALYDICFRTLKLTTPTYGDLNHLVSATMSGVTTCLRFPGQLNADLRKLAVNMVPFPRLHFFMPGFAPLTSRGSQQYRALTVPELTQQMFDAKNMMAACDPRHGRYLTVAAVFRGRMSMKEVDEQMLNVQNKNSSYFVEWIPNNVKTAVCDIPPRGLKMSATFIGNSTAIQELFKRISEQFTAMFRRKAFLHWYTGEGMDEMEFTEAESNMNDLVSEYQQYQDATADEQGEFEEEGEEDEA

inhibition (Tubulin (Sus scrofa)): Dose-dependent effect
Compound: COc1cc(C(=O)c2nc(Nc3cccc(C)c3)nc3ccsc23)cc(OC)c1OC
Activity (HeLa [1]): Dose-dependent effect | Activity (HeLa [2]): 59.55% | Activity (HeLa [3]): 9.7% | Activity (HeLa [4]): 32.76% | Activity (HeLa [5]): 2.39% | Activity (HeLa [6]): 13.37% | Activity (HeLa [7]): 84.24% | Activity (HeLa [8]): 6.57% | Activity (HeLa [9]): 2.78% | Activity (HeLa [10]): 9.34% | Activity (HeLa [11]): 11.4%
